What all share (experiment): NCI tumour cell line growth inhibition, 48 h
The test system of assay [1] is Malme-3M.
Assay [2] concerns NCI-H226.
The test system of assay [3] is PC-3.
Assay [4] concerns NCI/ADR-RES.
Assay [5] concerns SK-OV-3.
For assay [6], the system named is HCT-15.
Assay [7] relates to KM12.
The subject of assay [8] is LOX IMVI.
For assay [9], the system named is SK-MEL-5.
In assay [10] the test system is COLO 205.
In assay [11] the test system is HT-29.
The subject of assay [12] is CCRF-CEM.
In assay [13] the test system is IGROV-1.
Assay [14] concerns 786-0.
Assay [15] has as its system K562.
Assay [16] concerns Hs-578T.
Assay [17] relates to A549.
Assay [18] relates to OVCAR-4.
For assay [19], the system named is HOP-62.
Assay [20] has as its system NCI-H522.

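Values below derive from 48-hour exposures of cells grown in 96-well plates, with endpoints linearly interpolated between the two concentrations bracketing the appropriate inhibition level. Here, GI50 denotes the concentration required for 50% inhibition of growth.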 The source made the active and inactive calls. Rule as the data show it: active = GI50 up to about 1.1 µM and inactive = higher.

As to `c1ccc(C(C2=Nc3cccc4cccc(c34)N2)c2ccccc2)cc1`, the GI50 in assay [1] was 27.8 µM (inactive); in assay [2], 31.6 µM (inactive); in assay [3], 23 µM (inactive); in assay [4] it was 21.2 µM (inactive); in [5], 21.5 µM (inactive); in [6] it was 25.1 µM. For the same compound, the GI50 in assay [7] was 20.6 µM (inactive); in [8] it was 18.7 µM (inactive); in assay [9], 20.5 µM (inactive); in assay [10], 18.9 µM (inactive); in assay [11], 23.2 µM (inactive); in [12] it was 39.2 µM (inactive). Also, the GI50 in assay [13] is 33.9 µM (inactive); in assay [14] it was 26.2 µM (inactive); in [15], 19 µM (inactive); in assay [16], 27 µM (inactive); in assay [17], 37.2 µM (inactive); in assay [18], 53.5 µM (inactive). In addition, the GI50 in [19] was 23.1 µM (inactive); in assay [20] it was 16.6 µM (inactive).
As for `O=C1c2ccccc2NC2C(O)c3ccccc3N12` (stereo not given), the GI50 in assay [1] was 3.98 µM (inactive); in assay [2] it was > 100 µM (inactive); in assay [3], 35.4 µM (inactive); in assay [4] it was 40.4 µM (inactive); in assay [5] it was > 100 µM (inactive); in assay [6], 34.6 µM. Moreover, the GI50 was 35.2 µM (inactive) in [7]; 36.6 µM (inactive) in assay [8]; 52.7 µM (inactive) in assay [9]; 41.1 µM (inactive) in [10]; 60 µM (inactive) in assay [11]; 29.4 µM (inactive) in [12]. The GI50 in [13] was 72.8 µM (inactive); in [14], > 100 µM (inactive); in [15], 13.9 µM (inactive); in assay [16], 25.1 µM (inactive); in [17], 10.9 µM (inactive); in [18] it was 25.5 µM (inactive). The figures for the GI50 in assay [19] and in assay [20] were 65 µM (inactive) and 4.09 µM (inactive), respectively.
For `Cc1c(N)nc(C(CC(N)=O)NCC(N)C(N)=O)nc1C(=O)NC(C(=O)NC(C)C(O)C(C)C(=O)NC(C(=O)NCCc1nc(-c2nc(C(=O)NCCCNC(C)c3ccccc3)cs2)cs1)C(C)O)C(OC1OC(CO)C(O)C(O)C1OC1OC(CO)C(O)C(OC(N)=O)C1O)c1c[nH]cn1` (stereo not given), the GI50 is 1.42 µM (inactive) in [1]; 0.184 µM (active) in assay [2]; > 50 µM (inactive) in assay [3]; 1.57 µM (inactive) in assay [4]; 10.2 µM (inactive) in [5]; 5.24 µM in assay [6]. For the same compound, the GI50 was 16.6 µM (inactive) in assay [7]; 0.108 µM (active) in assay [8]; 1.05 µM (active) in assay [9]; 11.3 µM (inactive) in assay [10]; 21.1 µM (inactive) in assay [11]; 4.33 µM (inactive) in [12]. Moreover, the GI50 is 9.51 µM (inactive) in [13]; 0.419 µM (active) in [14]; 10.1 µM (inactive) in [15]; 0.0482 µM (active) in [16]; 0.847 µM (active) in [17]; 7.4 µM (inactive) in assay [18]. In addition, the results for the GI50 in assay [19] and in assay [20] were 0.0998 µM (active) and 2.65 µM (inactive), respectively.
`CC(=O)NC1C(OCc2ccccc2)OC(CO)C(O)C1OC(C)C(=O)NC(C)C(=O)NC(CCC(=O)NCCCNc1c2ccccc2nc2cccc([N+](=O)[O-])c12)C(N)=O` (stereo not given): the GI50 in assay [1] was 2.21 µM (inactive); in assay [2] it was 2.79 µM (inactive); in [3] it was 0.618 µM (active); in assay [4], 4.09 µM (inactive); in assay [5], 7.26 µM (inactive); in assay [6], 1.67 µM. Also, the GI50 in assay [7] was 2.57 µM (inactive); in assay [8], 3.65 µM (inactive); in assay [9] it was 1.01 µM (active); in assay [10], 0.57 µM (active); in assay [11], 0.29 µM (active); in assay [12] it was 7.48 µM (inactive). Also, the GI50 is 19.1 µM (inactive) in [13]; 2.77 µM (inactive) in [14]; 1.17 µM (inactive) in assay [15]; 6.78 µM (inactive) in assay [16]; 1.43 µM (inactive) in assay [17]; 5.14 µM (inactive) in assay [18]. Moreover, the GI50 in [19] is 1.91 µM (inactive); in assay [20], 1.48 µM (inactive).
With `O=C1C=CC(=O)c2c(O)ccc(O)c21` [NAPHTHAZALIN], the GI50 in assay [1] was 1.18 µM (inactive); in assay [2], 9.25 µM (inactive); in assay [3] it was 12.8 µM (inactive); in assay [4], 1.92 µM (inactive); in [5], 12.7 µM (inactive); in assay [6] it was 0.753 µM. Moreover, the GI50 in [7] is 5.25 µM (inactive); in assay [8] it was 1.56 µM (inactive); in assay [9] it was 2.14 µM (inactive); in assay [10], 0.807 µM (active); in assay [11], 2.17 µM (inactive); in assay [12], 0.155 µM (active). Besides, the GI50 was 7.96 µM (inactive) in [13]; 1.14 µM (inactive) in assay [14]; 0.425 µM (active) in [15]; 2.17 µM (inactive) in assay [16]; 8.95 µM (inactive) in assay [17]; 2.39 µM (inactive) in assay [18]. For the same compound, the GI50 in assay [19] was 9.75 µM (inactive); in assay [20] it was 0.505 µM (active).

The values above are taken from ChEMBL document CHEMBL1201862, “PubChem BioAssay data set” (2004).
